From BindingDB's records for doi:10.7270/Q2CN728N (Nmmlsc, 2008)

target: T1, Bcl-2-related protein A1 (Homo sapiens, UniProt Q16548); experiment: inhibitors of Bim binding to Bfl-1, dose response, biochemical, multiplexed, bead-based flow cytometry (AID 1320); details: inactive by the depositor's call; pH 7.4; 4 °C
T1 sequence (Q16548 whole entry): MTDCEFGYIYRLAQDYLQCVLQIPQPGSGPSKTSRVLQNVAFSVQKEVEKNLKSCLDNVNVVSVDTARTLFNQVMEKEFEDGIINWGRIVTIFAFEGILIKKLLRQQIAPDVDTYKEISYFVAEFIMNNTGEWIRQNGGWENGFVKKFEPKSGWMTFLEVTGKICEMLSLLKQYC

| EC50 | SMILES |
| --- | --- |
| 4.63 µM | Cc1cccc(OCC(=O)NCC(=O)NN=Cc2cc(Br)ccc2OCc2ccccc2)c1 [N-[(5-bromanyl-2-phenylmethoxy-phenyl)methylideneamino]-2-[2-(3-methylphenoxy)ethanoylamino]ethanamide] |
| 4.72 µM | Nc1ccccc1/N=c1/ssnc1Cl [N-[(5Z)-4-chloro-5H-1,2,3-dithiazol-5-ylidene]benzene-1,2-diamine] |
| 26.5 µM | CC(C)C(=O)NC(c1ccccc1)c1cc([N+](=O)[O-])c2cccnc2c1O (centres undefined) [N-[(8-hydroxy-5-nitro-7-quinolinyl)-phenylmethyl]-2-methylpropanamide] |
| 4.36 µM | Cc1onc(-c2ccccc2)c1C(=O)Nc1nnc(COc2ccc(Cl)cc2)s1 [N-{5-[(4-chlorophenoxy)methyl]-1,3,4-thiadiazol-2-yl}-5-methyl-3-phenyl-4-isoxazolecarboxamide] |
| 1.88 µM | Cc1ccc(-c2cc(-c3ccc4c(c3)OCO4)c(C#N)c(N)n2)o1 [SMR000001529] |
| 22.7 µM | CSc1nnc2c3cc(C)ccc3n(Cc3ccccc3)c2n1 [SMR000046397] |
| 3.02 µM | NC(=O)c1c(N)sc2c1CCCCC2 [SMR000066289] |
| 57.3 µM | Nc1c(C(=O)NCc2ccco2)sc2nc3c(cc12)C(=O)CCC3 [SMR000072940] |
| 0.85 µM | CN(C)c1ccc(Nc2nc(-c3cccnc3)cs2)cc1 [SMR000104797] |
| 4.09 µM | CNC(=O)c1c(N)sc2c1CCCCC2 [SMR000111700] |
| 15 µM | CNc1ccc(Br)cc(C(=O)/C=C/c2cc(OC)ccc2OC)c1=O [SMR000115626] |
| 3.9 µM | O=C(Nc1ccc2nc(-c3ccco3)c(-c3ccco3)nc2c1)NC1CC1 [SMR000118524] |
| 3.18 µM | O=C(NCCO)c1ccc2nc(-c3ccco3)c(-c3ccco3)nc2c1 [SMR000121771] |
| 67.5 µM | N#Cc1ccc(/N=c2/ssnc2Cl)cc1 [SMR000130044] |
| 3.05 µM | COc1ccc(OC)c(-n2c(S)nnc2-c2ccc(C)cc2)c1 [SMR000155418] |
| 16.1 µM | Nc1ccc(C2=Nc3cccc4cccc(c34)N2)cc1 [SMR000175908] |
| 1.92 µM | S=c1[nH]cc(-c2ccccc2)n1-c1ccccc1 [SMR000196363] |
| 26.8 µM | CCC(=O)OCCNc1cc(Sc2nccn2C)c2nonc2c1[N+](=O)[O-] [SMR000207033] |
| 4.01 µM | CCN1C(=O)/C(=C\C=C2/C=CC=CN2CC)SC1=S [SMR000225150] |
| 15 µM | CNc1ccc(Br)cc(C(=O)/C=C/c2ccc(OC)cc2)c1=O [SMR000229850] |
| 12.2 µM | CCN(CC)c1ccc(NC(=O)c2ccccc2F)cc1S(=O)(=O)Nc1ccccc1OC [SMR000241522] |
| 24.8 µM | O=C1c2ccccc2-c2onc3ccc(N4CCCC4)c1c23 [SMR000279741] |
| 5.04 µM | COc1ccccc1-n1c(-c2cc(-c3ccc(F)cc3)[nH]n2)n[nH]c1=S [SMR000293072] |
| 42.3 µM | COc1cc(OC)c([N+](=O)[O-])cc1[CH+][N-]NC(=O)c1ccncc1 [SMR000306621] |
| 30.3 µM | O=c1c2c(-c3ccccc3)csc2nc2c3ccccc3c(NCCN3CCOCC3)nn12 [SMR000352519] |
| 0.55 µM | CCOC(=O)CSC1=NC(=O)/C(=C/c2ccc(Br)cc2)S1 [ethyl 2-[[(5Z)-5-[(4-bromophenyl)methylidene]-4-oxo-1,3-thiazol-2-yl]sulfanyl]acetate] |

same assay, conditions: pH 7.4; 4 °C

| EC50 | SMILES |
| --- | --- |
| 0.08 µM | CCC(=O)N(CC)C1C(=O)C(=O)c2ccccc2C1=O (centres undefined) [N-ethyl-N-(1-hydroxy-3,4-dioxo-2-naphthalenyl)propanamide] |
| 2.87 µM | CC(C)(C)NC(=O)COc1ccc(CNc2ccc3[nH]c(O)nc3c2)cc1 [N-tert-butyl-2-[4-[[(2-oxidanylidene-1,3-dihydrobenzimidazol-5-yl)amino]methyl]phenoxy]ethanamide] |
| 3.63 µM | COc1cc(/N=c2/ssnc2Cl)cc(OC)c1OC [SMR000025034] |
| 1.34 µM | Cc1cc2nn(-c3cccc4ccccc34)nc2cc1N [SMR000076237] |
| 6.53 µM | COc1cc(/N=c2/ssnc2Cl)c(OC)cc1Cl [SMR000130043] |
| 0.08 µM | CCC(=O)OCCNc1cc(Sc2nc3ccccc3s2)c2nonc2c1[N+](=O)[O-] [SMR000131460] |
| 5.04 µM | CCOC(=O)C1=C(Cc2ccc(OC)cc2)C(=O)c2ccccc2C1=O [SMR000136995] |
| 2.96 µM | O=C(Nc1cccc(C(F)(F)F)c1)c1ccc2nc(-c3ccco3)c(-c3ccco3)nc2c1 [SMR000142217] |
| 1.12 µM | COC(=O)c1c(C(=O)OC)c2cccc3cc(-c4ccccc4)c4ccc1c4n32 [SMR000161417] |
| 4.46 µM | O=c1[nH]c2ccc(N=Cc3c(O)ccc4cc(Br)ccc34)cc2[nH]1 [SMR000171789] |
| 3.33 µM | CCOC(=O)CSC1=NC(=O)/C(=C\c2ccc(OC(C)=O)cc2)S1 [SMR000180755] |
| 9.57 µM | C#CCn1cc(C=C2C(=O)c3ccccc3C2=O)c2ccccc21 [SMR000196125] |
| 1.63 µM | CCC(=O)OCCNc1cc(Sc2nc3ccccc3[nH]2)c2nonc2c1[N+](=O)[O-] [SMR000207032] |
| 31.7 µM | CNCc1ccccc1Sc1ccc(O)c(O)c1 [SMR000230497] |
| 1.12 µM | Oc1ccc(NCc2ccccc2OCc2ccccc2)cc1 [SMR000231540] |
| 5.71 µM | CN=c1scc(-c2cccs2)n1N=Cc1ccc(O)c(O)c1O [SMR000242177] |
| 0.87 µM | Nc1c(C(=O)NCC2CCCO2)sc2nc3c(c(-c4ccco4)c12)CC/C3=C\c1ccco1 (centres undefined) [SMR000259502] |
| 1.09 µM | Nc1c(C(=O)NC2CC2)sc2nc3c(c(-c4ccco4)c12)CC/C3=C/c1ccco1 [SMR000259554] |
| 0.56 µM | Cc1nc2scc(-c3ccccc3)c2c(=O)n1N=C1C=CC(=O)C=C1 [SMR000285999] |
| 0.85 µM | C=C[S+]([O-])c1sc(Cl)c(N2CCOCC2)c1[N+](=O)[O-] (centres undefined) [SMR000293370] |
| 15.2 µM | CC1CC(=Cc2cccc(F)c2)C2=NC(=S)NC(c3cccc(F)c3)C2C1 (centres undefined) [SMR000306148] |
| 6.78 µM | CC(=NNC(=O)c1cc(O)c(O)c(O)c1)c1ccc([N+](=O)[O-])cc1 [SMR000312589] |
| 9.21 µM | O=C(O)c1ccc(NC2=CC(=NS(=O)(=O)c3ccccc3)c3ccccc3C2=O)cc1 [SMR000313157] |
| 41.1 µM | CCN1/C(=C/C(C)=C/c2sc3ccccc3[n+]2CC)Sc2ccccc21 [SMR000354813] |
| 1.03 µM | CCN(CC)C(=O)COC(=O)c1cc(-c2ccco2)nc2ccccc12 [SMR000377201] |
| 1.77 µM | Cn1c(=O)c(C(=O)COC(=O)c2cc(-c3ccco3)nc3ccccc23)c(N)n(Cc2ccccc2)c1=O [[2-(6-amino-1-benzyl-3-methyl-2,4-dioxopyrimidin-5-yl)-2-oxoethyl] 2-(furan-2-yl)quinoline-4-carboxylate] |
| 3.2 µM | CCOC(=O)C1=C(Cc2ccc(C)cc2)C(=O)c2ccccc2C1=O [ethyl 3-[(4-methylphenyl)methyl]-1,4-bis(oxidanylidene)naphthalene-2-carboxylate] |

| SMILES | EC50 |
| --- | --- |
| Cc1ccc(-c2nc(N3CCOCC3)s[n+]2-c2ccccc2)cc1 [SMR000225370] | 0.02 µM |
